From ChEMBL document CHEMBL1201862, “PubChem BioAssay data set” (2004)
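Interpolation was linear, between the two tested concentrations surrounding the appropriate level; five concentrations were tested over 48 hours in 96-well plates. The concentration for 50% growth inhibition is given as GI50.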 Calls of active or inactive are those of the source. Rule as the data show it: active = GI50 up to about 1.1 µM and inactive = higher.

Key:
Experiment in all cases: NCI tumour cell line growth inhibition, 48 h
SK-MEL-2 = test system: SK-MEL-2
OVCAR-5 = test system: OVCAR-5
HCT-116 = test system: HCT-116
TK-10 = test system: TK-10
CCRF-CEM = test system: CCRF-CEM
UACC-62 = test system: UACC-62
Hs-578T = test system: Hs-578T
SK-MEL-5 = test system: SK-MEL-5
KM12 = test system: KM12
K562 = test system: K562
Malme-3M = test system: Malme-3M
EKVX = test system: EKVX
LOX IMVI = test system: LOX IMVI
SF-295 = test system: SF-295
IGROV-1 = test system: IGROV-1
MDA-MB-435 = test system: MDA-MB-435
HCC 2998 = test system: HCC 2998

Measured: GI50

CN(C(=O)Nc1ccc(Cl)c(Cl)c1)C1CCCC[C@@H]1N1CCCC1 (some centres not stated)
inactive: SK-MEL-2 38.3 µM | OVCAR-5 32.4 µM | HCT-116 51.8 µM | TK-10 33.3 µM | CCRF-CEM 30.5 µM | UACC-62 22.9 µM | Hs-578T 33.7 µM | SK-MEL-5 16.3 µM | KM12 39.5 µM | K562 24.2 µM | Malme-3M 22 µM | EKVX 47.5 µM | LOX IMVI 30.3 µM | SF-295 84.7 µM | IGROV-1 41.3 µM | MDA-MB-435 33 µM

CSc1nc(O)c(C#N)c(-c2ccc(Cl)cc2)n1
inactive: SK-MEL-2 > 100 µM | OVCAR-5 > 100 µM | HCT-116 72.1 µM | TK-10 > 100 µM | CCRF-CEM 61 µM | UACC-62 73.6 µM | Hs-578T 64.9 µM | SK-MEL-5 > 100 µM | KM12 > 100 µM | K562 > 100 µM | EKVX > 100 µM | SF-295 > 100 µM | HCC 2998 > 100 µM | IGROV-1 > 100 µM | MDA-MB-435 > 100 µM

CCn1c(-c2ccccc2)nc2c1C(=O)c1ccccc1C2=O
inactive: OVCAR-5 32.9 µM | HCT-116 21.7 µM | TK-10 36.2 µM | CCRF-CEM 18.4 µM | UACC-62 15.8 µM | Hs-578T 27.2 µM | SK-MEL-5 11.2 µM | KM12 22.7 µM | K562 25.9 µM | Malme-3M 8.81 µM | SF-295 30.1 µM | HCC 2998 18.2 µM | IGROV-1 19.3 µM | MDA-MB-435 15.9 µM

CC1=C(C#N)C(=C(C#N)C#N)OC1(C)Cc1ccccc1 (configuration not stated)
inactive: SK-MEL-2 36.7 µM | OVCAR-5 61.1 µM | HCT-116 36.7 µM | TK-10 36.4 µM | UACC-62 20.6 µM | Hs-578T 30 µM | SK-MEL-5 67.8 µM | KM12 55.5 µM | K562 39.6 µM | EKVX 45.9 µM | LOX IMVI 23.4 µM | SF-295 67.3 µM | HCC 2998 29.5 µM | IGROV-1 51.3 µM | MDA-MB-435 > 100 µM

O=C1/C(=C\c2ccc([N+](=O)[O-])o2)SC2NC(COc3ccc(Cl)cc3)=NN12 (configuration not stated)
inactive: SK-MEL-2 18.9 µM | OVCAR-5 21.2 µM | HCT-116 3.4 µM | TK-10 17.6 µM | CCRF-CEM 1.99 µM | Hs-578T 24.4 µM | SK-MEL-5 12.8 µM | KM12 13.7 µM | K562 2.99 µM | Malme-3M 2.4 µM | EKVX 5.83 µM | LOX IMVI 2.93 µM | SF-295 19.3 µM | IGROV-1 3.15 µM | MDA-MB-435 4.2 µM

CC(CCc1ccccc1)NCC(O)n1c(/N=N/N(C)C)nc2c1c(=O)n(C)c(=O)n2C (configuration not stated)
inactive: SK-MEL-2 > 100 µM | OVCAR-5 > 100 µM | HCT-116 > 100 µM | TK-10 > 100 µM | CCRF-CEM > 100 µM | UACC-62 > 100 µM | Hs-578T > 100 µM | SK-MEL-5 78.7 µM | KM12 > 100 µM | K562 > 100 µM | Malme-3M > 100 µM | EKVX > 100 µM | LOX IMVI > 100 µM | SF-295 > 100 µM | IGROV-1 > 100 µM | MDA-MB-435 > 100 µM

Cc1c2c(c(C)n1-c1ccccc1)C(=O)N(CCSC(=N)N)C2=O
inactive: SK-MEL-2 31.4 µM | OVCAR-5 > 100 µM | HCT-116 > 100 µM | TK-10 > 100 µM | CCRF-CEM > 100 µM | UACC-62 > 100 µM | Hs-578T > 100 µM | SK-MEL-5 1.96 µM | KM12 > 100 µM | K562 > 100 µM | Malme-3M > 100 µM | EKVX 9.75 µM | SF-295 22.6 µM | HCC 2998 > 100 µM | IGROV-1 > 100 µM | MDA-MB-435 93.3 µM

Cc1cc(C(O)CNC(C)CCn2cnc3c2c(=O)n(C)c(=O)n3C)ccc1O (configuration not stated)
inactive: SK-MEL-2 > 100 µM | OVCAR-5 > 100 µM | HCT-116 > 100 µM | TK-10 > 100 µM | CCRF-CEM > 100 µM | UACC-62 > 100 µM | Hs-578T > 100 µM | SK-MEL-5 > 100 µM | KM12 > 100 µM | K562 > 100 µM | Malme-3M > 100 µM | EKVX > 100 µM | LOX IMVI > 100 µM | SF-295 > 100 µM | IGROV-1 > 100 µM | MDA-MB-435 > 100 µM

CCO/C(=N/S(=O)(=O)C(F)(F)F)N(C(C)C)C(C)C
inactive: SK-MEL-2 > 100 µM | OVCAR-5 > 100 µM | HCT-116 > 100 µM | TK-10 > 100 µM | CCRF-CEM > 100 µM | UACC-62 > 100 µM | Hs-578T > 100 µM | SK-MEL-5 > 100 µM | KM12 > 100 µM | Malme-3M > 100 µM | EKVX > 100 µM | LOX IMVI > 100 µM | IGROV-1 > 100 µM | MDA-MB-435 > 100 µM
